Data as given in ChEMBL document CHEMBL5523725, “Fragment-Based Anti-inflammatory Agent Design and Target Identification: Discovery of AF-45 as an IRAK4 Inhibitor to Treat Ulcerative Colitis and Acute Lung Injury” (J Med Chem, 2024).
Activity calls are given as the source filed them. No cut-off for these calls is given here.

Tests used:
[1] = system: RAW264.7; test: Antiinflammatory activity in LPS-induced mouse RAW264.7 cells assessed as inhibition of IL-6 release at 10 uM pretreated for 30 mins followed by LPS stimulation and measured after 24 hrs by ELISA relative to control; assay type: functional; conditions: time 24.5 hrs
[2] = Cytotoxicity against mouse RAW264.7 cells assessed as cell viability by MTT assay; assay type: toxicity, cell-based; set-up: concentration or dose not given beside the values; conditions: read-out: Activity
[3] = system: Mus musculus; test: Antiinflammatory activity in LPS induced C57BL/6 mouse model of acute lung injury assessed as inhibition of IL-6 release in serum at 20 mg/kg, ip preadministered for 30 mins followed by LPS administration and measured after 6 hrs by ELISA; assay type: functional, organism-based; conditions: time 6.5 hrs
[4] = system: Mus musculus; test: Antiinflammatory activity in LPS induced C57BL/6 mouse model of acute lung injury assessed as inhibition of TNFalpha release in serum at 20 mg/kg, ip preadministered for 30 mins followed by LPS administration and measured after 6 hrs by ELISA; assay type: functional, organism-based; conditions: time 6.5 hrs
[5] = system: Mus musculus; test: Antiinflammatory activity in LPS induced C57BL/6 mouse model of acute lung injury assessed as inhibition of IL-6 release in BALF at 20 mg/kg, ip preadministered for 30 mins followed by LPS administration and measured after 6 hrs by ELISA; assay type: functional, organism-based; conditions: time 6.5 hrs
[6] = system: Mus musculus; test: Antiinflammatory activity in LPS induced C57BL/6 mouse model of acute lung injury assessed as inhibition of TNFalpha release in BALF at 20 mg/kg, ip preadministered for 30 mins followed by LPS administration and measured after 6 hrs by ELISA; assay type: functional, organism-based; conditions: time 6.5 hrs
[7] = system: Mus musculus; test: Antiinflammatory activity in LPS induced C57BL/6 mouse model of acute lung injury assessed as reduction in spleen over activation at 20 mg/kg, ip preadministered for 30 mins followed by LPS administration and measured after 6 hrs by H and E staining based analysis; assay type: functional, organism-based; conditions: time 6.5 hrs
[8] = system: Mus musculus; test: Antiinflammatory activity in LPS induced C57BL/6 mouse model of acute lung injury assessed as reduction in white pulp fusion at 20 mg/kg, ip preadministered for 30 mins followed by LPS administration and measured after 6 hrs by H and E staining based analysis; assay type: functional, organism-based; conditions: time 6.5 hrs
[9] = system: Mus musculus; test: Antiinflammatory activity in LPS induced C57BL/6 mouse model of acute lung injury assessed as reduction in macrophage infiltration in lung at 20 mg/kg, ip preadministered for 30 mins followed by LPS administration and measured after 6 hrs by F4/80 labeling based immunohistochemical analysis; assay type: functional, organism-based; conditions: time 6.5 hrs
[10] = system: Mus musculus; test: Antiinflammatory activity in LPS induced C57BL/6 mouse model of acute lung injury assessed as reduction in over activation of spleen at 20 mg/kg, ip preadministered for 30 mins followed by LPS administration and measured after 6 hrs by F4/80 labeling based immunohistochemical analysis; assay type: functional, organism-based; conditions: time 6.5 hrs
[11] = system: Mus musculus; test: Antiinflammatory activity in LPS induced C57BL/6 mouse model of acute lung injury assessed as reduction in number of macrophages in spleen at 20 mg/kg, ip preadministered for 30 mins followed by LPS administration and measured after 6 hrs by F4/80 labeling based immunohistochemical analysis; assay type: functional, organism-based; conditions: time 6.5 hrs
[12] = system: Mus musculus; test: Anti-colitis activity in male C57BL/6 mouse model of DSS-induced ulcerative colitis assessed as colon length at 100 mg/kg, po administered for 11 days with subsequent administration of DSS for 8 days (reference value: 5.2 cm); assay type: functional; conditions: time 11 day
[13] = system: Mus musculus; test: Antiinflammatory activity in male C57BL/6 mouse model of DSS-induced ulcerative colitis assessed as reduction in spleen to body weight ratio at 100 mg/kg, po administered for 11 days with subsequent administration of DSS for 8 days; assay type: functional, organism-based; conditions: time 11.0 day
[14] = system: Mus musculus; test: Antiinflammatory activity in male C57BL/6 mouse model of DSS-induced ulcerative colitis assessed as reduction in colonic structure destruction at 100 mg/kg, po administered for 11 days with subsequent administration of DSS for 8 days by H and E staining based analysis; assay type: functional, organism-based; conditions: time 11.0 day
[15] = system: Mus musculus; test: Antiinflammatory activity in male C57BL/6 mouse model of DSS-induced ulcerative colitis assessed as preservation of goblet cells at 100 mg/kg, po administered for 11 days with subsequent administration of DSS for 8 days by H and E staining based analysis; assay type: functional, organism-based; conditions: time 11.0 day
[16] = system: Mus musculus; test: Antiinflammatory activity in male C57BL/6 mouse model of DSS-induced ulcerative colitis assessed as restoration of protein status at 100 mg/kg, po administered for 11 days with subsequent administration of DSS for 8 days by H and E staining based analysis; assay type: functional, organism-based; conditions: time 11.0 day
[17] = system: Mus musculus; test: Antiinflammatory activity in male C57BL/6 mouse model of DSS-induced ulcerative colitis assessed as reduction in macrophage infiltration in colon at 100 mg/kg, po administered for 11 days with subsequent administration of DSS for 8 days by F4/80 labeling based immunohistochemistry analysis; assay type: functional, organism-based; conditions: time 11.0 day
[18] = system: Mus musculus; test: Antiinflammatory activity in male C57BL/6 mouse model of DSS-induced ulcerative colitis assessed as reduction in macrophage infiltration in spleen at 100 mg/kg, po administered for 11 days with subsequent administration of DSS for 8 days by F4/80 labeling based immunohistochemistry analysis; assay type: functional, organism-based; conditions: time 11.0 day
[19] = biological target: T1, Lymphocyte antigen 96 (Mus musculus) (UniProt Q9JHF9); test: Thermal stabilization of MD2 in mouse RAW264.7 cells assessed as reduction in decomposition at 10 uM at 45 to 51 degreeC measured after 4 hrs by CETSA; assay type: cell-based
T1 sequence (whole entry): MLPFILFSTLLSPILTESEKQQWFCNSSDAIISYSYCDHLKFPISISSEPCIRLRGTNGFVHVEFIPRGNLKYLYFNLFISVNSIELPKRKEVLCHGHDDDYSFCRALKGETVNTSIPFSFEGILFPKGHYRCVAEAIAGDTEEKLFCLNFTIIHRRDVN

| Compound | inhibition at 10 µM [1] | viability [2] | further results |
| --- | --- | --- | --- |
| N[C@H]1CC[C@@H](Oc2ncnc3ccccc23)CC1 | 76.8% | 103% |  |
| COc1cc2ncnc(Oc3cccc(NC(=O)N[C@H]4CC[C@@H](NS(=O)(=O)c5ccccc5)CC4)c3)c2cc1OC | 16% | 112% |  |
| CCN1CCN(CCOc2ncnc3cc(OC)c(OC)cc23)CC1 | 40% | 90.1% |  |
| N[C@H]1CC[C@@H](Oc2ncnc3cc(Cl)ccc23)CC1 | 53.1% | 98.8% |  |
| CN[C@H]1CC[C@@H](Nc2ncnc3cc(OC)c(OC)cc23)CC1 |  | 98.2% | inhibition [1]: inactive |
| COc1cc2ncnc(N[C@H]3CC[C@@H](NS(=O)(=O)c4ccc(C)cc4)CC3)c2cc1OC | 45.4% | 104% |  |
| COc1cc2ncnc(O[C@H]3CC[C@@H](N)CC3)c2cc1OC | 75.8% | 88.9% |  |
| COc1cc2ncnc(Oc3cccc(NC(=O)N[C@H]4CC[C@@H](NC(=O)c5ccccn5)CC4)c3)c2cc1OC | 45.4% | 116% |  |
| COc1cc2ncnc(N[C@H]3CC[C@@H](N)CC3)c2cc1OC | 83.7% | 91.1% |  |
| COc1cc2ncnc(Oc3cccc(NC(=O)N[C@H]4CC[C@@H](NC(=O)CCC5CCCC5)CC4)c3)c2cc1OC | 52.9% | 117% |  |
| COc1cc2ncnc(O[C@H]3CC[C@H](N)CC3)c2cc1OC | 57.4% | 93.7% |  |
| COc1cc2c(N[C@H]3CC[C@@H](N)CC3)ncnc2cc1OCc1ccccc1 | 88.6% | 86.7% |  |
| COc1cc2ncnc(Oc3cccc(NC(=O)N[C@H]4CC[C@@H](NC(=O)c5ccc(C)cc5)CC4)c3)c2cc1OC | 72.7% | 124% |  |
| COc1cc2ncnc(N[C@H]3CC[C@@H](NCCO)CC3)c2cc1OC | 10.6% | 99.7% |  |
| COc1cc2ncnc(Oc3cccc(NC(=O)N[C@H]4CC[C@@H](NC(=O)c5cccc(F)c5)CC4)c3)c2cc1OC | 45.4% | 121% |  |
| COc1cc2ncnc(N[C@H]3CC[C@@H](NCCCN(C)C)CC3)c2cc1OC | 11.1% | 96.5% |  |
| COc1cc2ncnc(Oc3cccc(NC(=O)O[C@H]4C[C@@H](N)C4)c3)c2cc1OC | 46.9% | 106% |  |
| COc1cc2ncnc(Oc3cccc(NC(=O)N[C@H]4CC[C@@H](N)CC4)c3)c2cc1OC | 77.3% | 91.5% |  |

| Compound | inhibition at 10 µM [1] | viability [2] | further results |
| --- | --- | --- | --- |
| COc1cc2ncnc(N[C@H]3CC[C@H](N)CC3)c2cc1OC | 64.6% | 108% |  |
| Cn1c(CNC(=O)O[C@H]2C[C@@H](N)C2)nc2ccccc21 | 44.7% | 97.1% |  |
| COCCOc1cc2ncnc(O[C@H]3CC[C@@H](N)CC3)c2cc1OCCOC | 52.7% | 98.6% |  |
| COc1cc2ncnc(NCCc3cccs3)c2cc1OC | 16.1% | 88.1% |  |
| N[C@H]1C[C@@H](OC(=O)c2nn(-c3ccccc3)ccc2=O)C1 | 33.2% | 89% |  |
| COc1cc2ncnc(Oc3cccc(NC(=O)N[C@H]4CC[C@@H](NC(=O)OC(C)(C)C)CC4)c3)c2cc1OC | 2.1% | 92.1% |  |
| COc1cc2ncnc(Oc3cccc(NC(=O)N[C@H]4CC[C@@H](NC(=O)c5ccc(F)cc5Cl)CC4)c3)c2cc1OC | 9.4% | 130% |  |
| COc1cc2ncnc(Oc3cccc(NC(=O)N[C@H]4CC[C@@H](NC(=O)c5ccc(F)cc5)CC4)c3)c2cc1OC | 52.2% | 123% |  |
| C[C@@H]1C[C@H]2[C@@H]3CCC4=CC(=O)C=C[C@]4(C)[C@@]3(F)[C@@H](O)C[C@]2(C)[C@@]1(O)C(=O)CO |  |  | Activity [3]: Active; Activity [4]: Active; Activity [5]: Active; Activity [6]: Active; Activity [7]: Active; Activity [8]: Active; Activity [9]: Active; Activity [10]: inactive; Activity [11]: inactive |
| COc1cc2ncnc(N[C@H]3CC[C@@H](NC(=O)c4ccc(F)cc4)CC3)c2cc1OC | 39.9% | 102% |  |
| COc1cc2ncnc(Oc3cccc(NC(=O)O[C@H]4CC[C@@H](N)CC4)c3)c2cc1OC | 73.4% | 96.5% |  |
| COc1cc2nc(Cl)nc(O[C@H]3CC[C@@H](N)CC3)c2cc1OC | 34.3% | 105% |  |
| COc1cc2ncnc(N[C@H]3CC[C@@H](NC(=O)c4ccc(C)cc4)CC3)c2cc1OC | 42.3% | 97.8% |  |
| Nc1ccc(O)c(C(=O)O)c1 [MESALAMINE] |  |  | Activity [12]: 6 cm; Activity [13]: Active; Activity [14]: Active; Activity [15]: Active; Activity [16]: Active; Activity [17]: Active; Activity [18]: Active |
| COc1ccc(C(=O)/C=C/c2cccc(OC)c2OC)cc1 |  |  | Activity [19]: Active |
| N[C@H]1CC[C@@H](OC(=O)c2nn(-c3ccccc3)ccc2=O)CC1 |  | 107% | inhibition [1]: inactive |
| Cn1c(CNC(=O)O[C@H]2CC[C@@H](N)CC2)nc2ccccc21 | 52.8% | 90.1% |  |
